Earlier results as cited in patent US6770617B2, “Softener composition” (Kao Corporation, priority 2001, dated 2004).

Conditions: 1-octanol/water; actual value if there was one, otherwise Clog P calculated with CLOGP v4.01

Structure (SMILES) | log P
CCCCCOCC(O)CO (stereo not drawn) [(c-1), Pentyl glyceryl ether] | 0.54
CCCOC(C)COC(C)CO (stereo not drawn) [(c-2), Dipropylene glycol monopropyl ether] | 0.99
OCCOCCOCCOc1ccccc1 [(c-3), Triethylene glycol monophenyl ether] | 1.32
